Drawing on PubChem BioAssay AID743474 (The Scripps Research Institute Molecular Screening Center, 2014), this text covers inhibition for 40 molecules.

The structures appear in SMILES notation. Active and inactive are the calls of the source. No rule for the calls is given here.

The assay relates to CCHF vOTU. The assay is described as follows: CCHF vOTU protease inhibitors, late-stage follow-up, biochemical, fluorescence, Ub-R110 substrate (AID 743474). Particulars: Recombinant CCHF vOTU, Ub-R110 fluorescence cleavage, hits give high values.

With `O=C(COC(=O)c1ccc([N+](=O)[O-])s1)Nc1ccc(F)cc1`, the inhibition (Assay 1, Ub-R110 substrate, at 26.34 µM) is 21.3%.
Take `CCC(CNc1cc(OC)cc2cccnc12)NC1CCCCC1` (stereo not drawn): the inhibition (Assay 1, Ub-R110 substrate, at 6.96 µM) was 3.8% (inactive).
On to `Cc1ccccc1-c1cc2c(nn1)-c1ccccc1C2=O`, for which the inhibition reads like this: (Assay 1, Ub-R110 substrate, at 2.23 µM) 3.27% (inactive); (Assay 2, Ub-R110 substrate, at 4.46 µM) 15.3% (inactive).
As for `O=C1OC(Nc2cc(Br)cc3cccnc23)c2ccccc21` (stereo not drawn), where the note is “Assay 1, Ub-R110 substrate, at 5.44 µM”, the inhibition is 6% (inactive).
`CCc1cc[n+](C2=C(NS(=O)(=O)c3cccs3)C(=O)c3ccccc3C2=O)cc1`: the inhibition (Assay 1, Ub-R110 substrate, at 14.16 µM) is 64.3%.
Take `COc1cc(C(=O)c2nccc3cc(OC)c(OC)cc23)c([N+](=O)[O-])cc1OC`: under “Assay 1, Ub-R110 substrate, at 4.04 µM”, the inhibition was 0.3% (inactive).
Consider `Cc1ccc2c(c1C)-c1c(ccc(C)c1C)C(=O)C2=O`, for which the inhibition (Assay 1, Ub-R110 substrate, at 18.9 µM) was 62.5%.
With `CC1(C)C=C2C(=NN(c3ccccc3)C(N)=C2C#N)CO1`, the inhibition (Assay 1, Ub-R110 substrate, at 23.49 µM) was 22.2%.
In the case of `O=C1Cc2ccccc2C(=O)N1`, the inhibition (Assay 1, Ub-R110 substrate, at 0.6 µM) is 57.9%.
As to `COc1cc(Br)c(C(=O)c2nccc3cc(OC)c(OC)cc23)cc1OC`, the inhibition (Assay 1, Ub-R110 substrate, at 1.13 µM) was 14.4% (inactive).
In the case of `NS(=O)(=O)c1ccc(NC(=O)COC(=O)c2ccc([N+](=O)[O-])s2)cc1`, the inhibition (Assay 1, Ub-R110 substrate, at 29.01 µM) is 13.3% (inactive).
Consider `O=C1Cc2ccccc2C(=O)N1CCc1ccccc1`, for which the inhibition was 3.44% (inactive) (Assay 1, Ub-R110 substrate, at 1.51 µM) and 10.7% (inactive) (Assay 2, Ub-R110 substrate, at 3.02 µM).
Take `CC1CCCC(NC(=O)COC(=O)c2ccc([N+](=O)[O-])s2)C1C` (stereo not drawn): under “Assay 1, Ub-R110 substrate, at 31.32 µM”, the inhibition is 14.7% (inactive).
For the molecule `CCn1nc(/C=C/c2ccccc2)nc2c(=O)n(C)c(=O)nc1-2`, where the note is “Assay 1, Ub-R110 substrate, at 0.49 µM”, the inhibition is 98%.
In the case of `NS(=O)(=O)c1ccc(NC2=CC(=O)C(=O)c3ccccc32)cc1`, for the setting “Assay 1, Ub-R110 substrate, at 11.51 µM”, the inhibition was 21.1%.
Consider `O=C(NC1=CC(=O)c2ccccc2C1=O)c1ccccc1`, for which, for the setting “Assay 1, Ub-R110 substrate, at 12.37 µM”, the inhibition was 55.6%.
Turning to `COC(CNC(=O)c1ccc2c3c(onc13)-c1ccccc1C2=O)OC`, the inhibition (Assay 1, Ub-R110 substrate, at 24.19 µM) was 52.5%.
For `Cc1c(Cl)cnc(NC(=O)COC(=O)c2ccc([N+](=O)[O-])s2)c1Cl`, the inhibition (Assay 1, Ub-R110 substrate, at 20.44 µM) is 40.7%.
In the case of `CC1COCC(C)N1C1=C(Cl)C(=O)c2ccccc2C1=O` (stereo not drawn), the inhibition (Assay 1, Ub-R110 substrate, at 14.67 µM) was 31.2%.
With `COc1ccccc1NC(=O)COC(=O)c1ccc([N+](=O)[O-])s1`, under “Assay 1, Ub-R110 substrate, at 35.07 µM”, the inhibition is 26.7%.
Take `CCOC(=O)N=Nc1c2ccccc2c2nc3no[nH]c3nc12`: under “Assay 1, Ub-R110 substrate, at 7.75 µM”, the inhibition was 33.2%.
`O=C(COC(=O)c1ccc([N+](=O)[O-])s1)NCc1ccc(F)cc1`: where the note is “Assay 1, Ub-R110 substrate, at 40.58 µM”, the inhibition was 30.5%.
`O=C(COC(=O)c1ccc([N+](=O)[O-])s1)Nc1ncc(C(F)(F)F)cc1Cl`: where the note is “Assay 1, Ub-R110 substrate, concentration not given here”, the inhibition was 41.1%.
As to `O=C1Cc2ccccc2C(=O)N1Cc1ccccc1`, the inhibition (Assay 1, Ub-R110 substrate, at 1.31 µM) was 49.5%.
`Cc1ccc(NC2=CC(=O)C(=O)c3ccccc32)cc1`: the inhibition (Assay 1, Ub-R110 substrate, at 12.24 µM) was 22.1%.
Take `COC1=C(N)C(=O)c2nc(C)ccc2C1=O`: for the setting “Assay 1, Ub-R110 substrate, at 4.98 µM”, the inhibition is 16.6% (inactive).
As for `CC(=O)c1ccc(NC(=S)Nc2cccc3cnccc23)cc1`, where the note is “Assay 1, Ub-R110 substrate, at 7.69 µM”, the inhibition was 4.4% (inactive).
Regarding `O=C(c1ccco1)[C@@H]1[C@@H]2C(=O)N(c3ccc(Br)cc3)C(=O)[C@@H]2C2c3ccccc3C=CN21` (stereo partly drawn), the inhibition (Assay 1, Ub-R110 substrate, at 11.01 µM) is 16.9% (inactive).
`O=C(/C=C/c1ccc(O)cc1)c1ccc(NC2=C(N3CCCCC3)C(=O)c3ccccc3C2=O)cc1`: the inhibition (Assay 1, Ub-R110 substrate, at 10.17 µM) is 23.2%.
`O=S(=O)(Nc1cc2nc3ccccc3nc2n1Cc1ccccc1)c1ccc(Cl)cc1`: the inhibition (Assay 1, Ub-R110 substrate, at 7.6 µM) is 5% (inactive).
For `O=c1[nH]c(Nc2ccccc2)cc2cc(Br)ccc12`, the inhibition (Assay 1, Ub-R110 substrate, at 1.45 µM) is 19.9% (inactive).
Take `O=C1C=C(Nc2ccccc2)c2ccccc2C1=O`: under “Assay 1, Ub-R110 substrate, at 15.55 µM”, the inhibition was 21.8%.
For the molecule `COc1ccc2noc3c2c1C(=O)c1ccccc1-3`, for the setting “Assay 1, Ub-R110 substrate, at 6.28 µM”, the inhibition is 22.7%.
Consider `COc1cc(NC(=O)COC(=O)c2ccc([N+](=O)[O-])s2)cc(OC)c1OC`, for which, under “Assay 1, Ub-R110 substrate, at 21.72 µM”, the inhibition was 15.2% (inactive).
For `O=C(OCc1nnc(-c2ccccc2)o1)c1ccc([N+](=O)[O-])s1`, the inhibition (Assay 1, Ub-R110 substrate, at 26.04 µM) is 20.8%.
On to `CN(C1=C(NC(=O)c2ccccc2)C(=O)c2ccccc2C1=O)C1CCS(=O)(=O)C1` (stereo not drawn), for which the inhibition (Assay 1, Ub-R110 substrate, at 9.59 µM) was 4.36% (inactive) and the inhibition (Assay 2, Ub-R110 substrate, at 19.18 µM) was 55.5%.
On to `O=C(NC1=C(NC2CCS(=O)(=O)C2)C(=O)c2ccccc2C1=O)c1ccccc1` (stereo not drawn), for which the inhibition (Assay 1, Ub-R110 substrate, at 14.2 µM) was 49.8%.
Consider `Cn1nc(-c2ccccn2)nc2c(=O)n(C)c(=O)nc1-2`, for which the inhibition (Assay 1, Ub-R110 substrate, at 1.16 µM) was 97.3%.
As for `Cc1ccc(N2C(=O)[C@@H]3[C@H](C2=O)C2c4ccccc4C=CN2[C@@H]3C(=O)c2ccco2)cc1` (stereo partly drawn), for the setting “Assay 1, Ub-R110 substrate, at 5.2 µM”, the inhibition is 33.9%.
`O=C(O)CSc1cc(NS(=O)(=O)c2cccc([N+](=O)[O-])c2)c2ccccc2c1O`: where the note is “Assay 1, Ub-R110 substrate, at 7.61 µM”, the inhibition was 0.5% (inactive).
